Data on seven compounds can be found in the Kinase Knowledgebase extract (Sharma et al. 2016).

Each structure is given as a SMILES string.

The test concerns the target CDK2 (human) (UniProt P24941). The test is described as follows: Cell-Based Assay.

Broadly, the IC50 is the point on the concentration scale where inhibition reaches its midpoint. Read a low IC50 as greater potency in that assay. Take `COc1cc[nH]c1/C=C1\C(=O)Nc2ccc([N+](=O)[O-])c(NC3CCC(O)C3)c21` (stereo unspecified): the IC50 runs as follows: (mda-mb-435) 1000 nM; (rko) 339 nM.

`COc1cc[nH]c1/C=C1\C(=O)Nc2ccc([N+](=O)[O-])c(N3CCC(N)CC3)c21` had a 50% inhibitory concentration (IC50) (mda-mb-435) of less than 10 nM and a 50% inhibitory concentration (IC50) (rko) of less than 10 nM. Consider `COc1cc[nH]c1/C=C1\C(=O)Nc2ccc([N+](=O)[O-])c(N3CC[C@@H](N)C3)c21`, for which the concentration for half-maximal inhibition (IC50) is, setting by setting: (mda-mb-435) less than 10 nM; (rko) less than 10 nM. Consider `COc1cc[nH]c1/C=C1\C(=O)Nc2ccc(F)cc21`, for which the IC50 (mda-mb-435) was more than 30000 nM.

For `COc1cc[nH]c1/C=C1\C(=O)Nc2ccc([N+](=O)[O-])c(N3CCC(O)CC3)c21`, under “rko”, the half-inhibitory concentration (IC50) was less than 10 nM.

As for `COc1cc[nH]c1/C=C1\C(=O)Nc2ccc([N+](=O)[O-])c(-n3ccnc3)c21`, where the note is “mda-mb-435”, the half-inhibitory concentration (IC50) is more than 30000 nM. With `COc1cc[nH]c1/C=C1\C(=O)Nc2ccc([N+](=O)[O-])c(NC3CCC(N)C3)c21` (stereo unspecified), the IC50 runs as follows: (mda-mb-435) 61 nM; (rko) less than 15 nM.
